Measured values as given in US20070129357A1, “Novel crystals of fluorobenzamide derivative” (priority 2003, published 2007).
“Also recorded” adds a separate entry of the source.

Tests used:
[1] = Hygroscopicity of the crystals (FIG. 5 and FIG. 6); format: physicochemical; conditions: crystal forms of compound A compared, FIG. 5 (α-type, Example 3) and FIG. 6 (β-type, Example 2); monophosphate
[2] = test system: If current; conditions: stated as known from WO 00/75133; cited from earlier work

| Structure (SMILES) | melting point | hygroscopicity [1] | inhibitory action for If current [2] |
| --- | --- | --- | --- |
| COc1cc2c(cc1OC)CN(C(=O)[C@@H]1CCCN(CCNC(=O)c3ccc(F)cc3)C1)CC2.O=P(O)(O)O [β-type crystal, (−)-N-{2-[(R)-3-(6,7-dimethoxy-1,2,3,4-tetrahydroisoquinoline-2-carbonyl)piperidino]ethyl}-4-fluorobenzamide monophosphate] | 195.5 to 196.3 °C | – | – |
| COc1cc2c(cc1OC)CN(C(=O)[C@@H]1CCCN(CCNC(=O)c3ccc(F)cc3)C1)CC2.O=P(O)(O)O [α-type crystal, (−)-N-{2-[(R)-3-(6,7-dimethoxy-1,2,3,4-tetrahydroisoquinoline-2-carbonyl)piperidino]ethyl}-4-fluorobenzamide monophosphate] | 203.8 to 204.7 °C | particularly good hygroscopicity; also recorded: superior to the β-type crystal in terms of hygroscopicity | – |
| COc1cc2c(cc1OC)CN(C(=O)[C@@H]1CCCN(CCNC(=O)c3ccc(F)cc3)C1)CC2.O=P(O)(O)O [compound A, (−)-N-{2-[(R)-3-(6,7-dimethoxy-1,2,3,4-tetrahydroisoquinoline-2-carbonyl)piperidino]ethyl}-4-fluorobenzamide monophosphate] | – | – | inhibitory action for If current |
